The text below walks through data of PubChem BioAssay (NCI).

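Cultured in 96-well plates, cells were exposed to test compound for 48 hours across five concentrations. GI50 marks 50% less growth. The concentration for full growth arrest is given as TGI.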

Test systems include NCI-H23 lung; OVCAR-4 ovarian; SNB-75 CNS; MOLT-4 leukemia; SK-MEL-28 melanoma; HOP-92 NSCLC; HCT-116 colon; NCI-H226 lung; DU-145 prostate; MCF7 breast.
What all share (assay): growth of human tumour cells (NCI), 48 h

On to `COc1cc2c(cc1OC)-c1c(cnn1C1OC(COC(C)=O)C(OC(C)=O)C(OC(C)=O)C1OC(C)=O)CC2` (centres undefined), for which the TGI was more than 100 µM with NCI-H23 lung; more than 100 µM with OVCAR-4 ovarian; 98.2 µM with SNB-75 CNS; more than 100 µM in the experiment on MOLT-4 leukemia; more than 100 µM with SK-MEL-28 melanoma; more than 100 µM in the experiment on HOP-92 NSCLC. The TGI with HCT-116 colon and in the experiment with NCI-H226 lung was more than 100 µM throughout.
Take `CCCCCCN1C(=O)/C(=c2\sc3n(c2=O)C2C(NN=3)N(CC)C(=O)N2CC)c2ccccc21` (centres undefined): the GI50 is 2.52 µM in the experiment on DU-145 prostate; 2.05 µM in the experiment on NCI-H23 lung; 0.762 µM with SNB-75 CNS; 3.96 µM in the experiment on MOLT-4 leukemia; 2.09 µM in the experiment with SK-MEL-28 melanoma; 1.73 µM in the experiment on MCF7 breast. Besides, the TGI in the experiment on DU-145 prostate is more than 50 µM; with NCI-H23 lung, more than 50 µM; in the experiment with SNB-75 CNS, 2.31 µM; in the experiment with MOLT-4 leukemia it was more than 50 µM; in the experiment with SK-MEL-28 melanoma, more than 50 µM; in the experiment with MCF7 breast, more than 50 µM.
`O=C(Nc1ccc(C(F)(F)F)cc1[N+](=O)[O-])C(=O)C(C(=O)c1ccc2ccccc2c1)C1OC(=O)c2ccccc21` (centres undefined): the TGI with NCI-H23 lung was 12.1 µM; in the experiment on OVCAR-4 ovarian, more than 50.4 µM; in the experiment with SNB-75 CNS it was 23 µM; in the experiment on MOLT-4 leukemia, 10.6 µM; with SK-MEL-28 melanoma it was 18 µM; in the experiment on HOP-92 NSCLC, 4 µM. Further, the TGI in the experiment with HCT-116 colon is 15.3 µM; with NCI-H226 lung, 3.29 µM.
Consider `O=[N+]([O-])c1ccc(Cc2nc3ccccc3s2)cc1`, for which the TGI in the experiment with NCI-H23 lung, in the experiment on OVCAR-4 ovarian, in the experiment with SNB-75 CNS, with MOLT-4 leukemia, in the experiment on SK-MEL-28 melanoma and in the experiment on HOP-92 NSCLC was more than 100 µM in each case. Besides, the TGI with HCT-116 colon and with NCI-H226 lung was more than 100 µM throughout.
Take `Cc1ccccc1C(C#N)/C(=N/NC(=O)c1cc2ccccc2cc1O)C(=O)Nc1cccc(Cl)c1` (centres undefined): the TGI was 51.2 µM with NCI-H23 lung; 87.7 µM in the experiment on OVCAR-4 ovarian; 35.6 µM with SNB-75 CNS; more than 100 µM in the experiment with MOLT-4 leukemia; more than 100 µM in the experiment with SK-MEL-28 melanoma; more than 100 µM in the experiment with HOP-92 NSCLC. In addition, the TGI in the experiment with HCT-116 colon was more than 100 µM; with NCI-H226 lung, 78.4 µM.
Consider `COc1ccccc1NC(=O)CC(=O)n1nc(C)c(N=Nc2ccccc2F)c1C`, for which the TGI in the experiment on NCI-H23 lung was more than 100 µM; in the experiment on OVCAR-4 ovarian, more than 100 µM; in the experiment on SNB-75 CNS, 28.3 µM; in the experiment with MOLT-4 leukemia, more than 31.6 µM; in the experiment with SK-MEL-28 melanoma, more than 100 µM; with HOP-92 NSCLC, more than 100 µM. Besides, the results for the TGI in the experiment on HCT-116 colon and in the experiment on NCI-H226 lung were more than 31.6 µM and more than 100 µM, respectively.
As to `COc1ccc(-c2ccc(/C=N/n3cn[nH]c3=S)o2)c([N+](=O)[O-])c1`, the GI50 was 80.5 µM in the experiment on DU-145 prostate; 39.3 µM in the experiment on NCI-H23 lung; 82.9 µM in the experiment on OVCAR-4 ovarian; 16.3 µM in the experiment on MOLT-4 leukemia; 48.6 µM in the experiment on SK-MEL-28 melanoma; 25.4 µM with MCF7 breast. Moreover, in the experiment with HCT-116 colon, the GI50 is 29.6 µM. For the same compound, the TGI with DU-145 prostate was more than 100 µM; with NCI-H23 lung, more than 100 µM; with OVCAR-4 ovarian it was more than 100 µM; with MOLT-4 leukemia, 50.8 µM; in the experiment on SK-MEL-28 melanoma it was more than 100 µM; in the experiment with MCF7 breast, 89.1 µM. The TGI with HCT-116 colon was 94.4 µM.
As to `CCCCOC(=O)/C(CC(=O)C=C(C)C)=N\NS(=O)(=O)c1ccc(C)cc1`, the TGI in the experiment on NCI-H23 lung, in the experiment with OVCAR-4 ovarian, with SNB-75 CNS, with MOLT-4 leukemia, in the experiment with SK-MEL-28 melanoma and in the experiment with HOP-92 NSCLC was more than 100 µM each time. Further, the TGI with HCT-116 colon and in the experiment with NCI-H226 lung was more than 100 µM throughout.
For `O=C1CCC(c2nc3ccccc3o2)C(=O)N1` (centres undefined), the TGI with NCI-H23 lung, in the experiment on OVCAR-4 ovarian, with SNB-75 CNS, in the experiment on MOLT-4 leukemia, in the experiment on SK-MEL-28 melanoma and with HOP-92 NSCLC was more than 100 µM each time. Further, the TGI in the experiment with HCT-116 colon and in the experiment with NCI-H226 lung was more than 100 µM each time.
`N#CCCc1nc2ccc(Br)cc2c(=O)n1-c1ccc(O)c([N+](=O)[O-])c1`: the TGI was determined as 42 µM in the experiment with NCI-H23 lung; 38.8 µM in the experiment with OVCAR-4 ovarian; 83.2 µM in the experiment with SNB-75 CNS; 54.3 µM in the experiment with MOLT-4 leukemia; 34.8 µM with SK-MEL-28 melanoma; 51.6 µM in the experiment on HOP-92 NSCLC. Also, the TGI in the experiment with NCI-H226 lung came to 43.3 µM.
For the compound `COc1ccc(C2(CN(C)C)COc3cc(OC)c(OC)cc3C2=O)cc1OC` (centres undefined), the TGI in the experiment with NCI-H23 lung was 94.4 µM; in the experiment on OVCAR-4 ovarian, more than 100 µM; in the experiment with SNB-75 CNS it was more than 100 µM; in the experiment with MOLT-4 leukemia, more than 100 µM; in the experiment on SK-MEL-28 melanoma it was more than 100 µM; in the experiment with HOP-92 NSCLC, more than 100 µM. The TGI in the experiment with HCT-116 colon is 30.3 µM; in the experiment on NCI-H226 lung, more than 100 µM.
As for `CCc1ccccc1NC(=O)CCc1nc(=S)[nH][nH]1`, the TGI in the experiment on NCI-H23 lung, in the experiment on OVCAR-4 ovarian, in the experiment on SNB-75 CNS, with MOLT-4 leukemia, in the experiment on SK-MEL-28 melanoma and in the experiment on HOP-92 NSCLC was more than 100 µM in each case. The TGI with HCT-116 colon and with NCI-H226 lung was more than 100 µM in each case.
Regarding `Cn1c2ccccc2c2c(=O)n(CCCC(=O)NCC(=O)OC(=NC3CCCCC3)NC3CCCCC3)c3c(-c4ccccc4)nnn3c21`, the GI50 with DU-145 prostate was 18.4 µM; in the experiment with NCI-H23 lung it was 15.6 µM; with MOLT-4 leukemia, 14.5 µM; with MCF7 breast, 3.62 µM; in the experiment on HCT-116 colon, 14.3 µM; in the experiment on NCI-H226 lung, 40 µM. The TGI with DU-145 prostate was more than 100 µM; in the experiment with NCI-H23 lung, 33 µM; in the experiment on MOLT-4 leukemia, more than 100 µM; with MCF7 breast, more than 100 µM; with HCT-116 colon it was 42.7 µM; in the experiment on NCI-H226 lung, more than 100 µM.
For `Cc1cc2c(cn1)C(=O)OCC2`, the TGI with NCI-H23 lung, in the experiment on OVCAR-4 ovarian, in the experiment on SNB-75 CNS, with MOLT-4 leukemia, with SK-MEL-28 melanoma and with HCT-116 colon was more than 100 µM throughout. The same compound had a TGI in the experiment with NCI-H226 lung of more than 100 µM.
